Measurements taken from the supplement of paper PMC10307832.

Legend:
Test in all cases: relative viability (nuclei count vs DMSO), 5 days (fraction); higher = more cells survive
[1] = tested on: BEN
Method in brief: (§1)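 The day after seeding in 1536-well plates, lung cancer cell lines were treated by pin tool with a single drug, or with a fixed anchor-drug dose together with five library-drug doses (not always all listed) in √10 steps. After 5 days, a combined fix-and-stain solution (final 0.05% Triton X-100, 1% formaldehyde, 1 ug/ml Hoechst) was added. Nuclei counted on 4× images gave relative viability as treated counts over vehicle counts, reported as the median of duplicate plates.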

[2] = tested on: EKVX
Method in brief: as §1

[3] = tested on: HARA
Method in brief: as §1

[4] = tested on: HCC-366
Method in brief: as §1

[5] = tested on: HCC-827
Method in brief: as §1

[6] = tested on: LC-2-ad
Method in brief: as §1

[7] = tested on: LOU-NH91
Method in brief: as §1

[8] = tested on: NCI-H1355
Method in brief: as §1

[9] = tested on: NCI-H1395
Method in brief: as §1

[10] = tested on: NCI-H1437
Method in brief: as §1

[11] = tested on: NCI-H1734
Method in brief: as §1

[12] = tested on: NCI-H2009
Method in brief: as §1

[13] = tested on: NCI-H2087
Method in brief: as §1

[14] = tested on: NCI-H2170
Method in brief: as §1

[15] = tested on: NCI-H2228
Method in brief: as §1

[16] = tested on: NCI-H2342
Method in brief: as §1

[17] = tested on: NCI-H2405
Method in brief: as §1

[18] = tested on: NCI-H596
Method in brief: as §1

[19] = tested on: NCI-H647
Method in brief: as §1

[20] = tested on: NCI-H661
Method in brief: as §1

[21] = tested on: SK-LU-1
Method in brief: as §1

[22] = tested on: SK-MES-1
Method in brief: as §1

SMILES: COc1cc(N2CCC(C(N)=O)CC2)ccc1Nc1nc(N)c(Cl)c(Nc2ccccc2S(=O)(=O)C(C)C)n1 [HG-5-88-01] + COc1cc2c(Oc3ccc(NC(=O)C4(C(=O)Nc5ccc(F)cc5)CC4)cc3F)ccnc2cc1OCCCN1CCOCC1 [Foretinib] (partner 0.25 µM)
- relative viability ([1]; first compound 0.04 µM): 0.399
- relative viability ([1]; first compound 0.1265 µM): 0.702
- relative viability ([1]; first compound 0.4 µM): 0.444
- relative viability ([1]; first compound 1.265 µM): 0.62
- relative viability ([1]; first compound 4 µM): 0.448
- relative viability ([2]; first compound 0.04 µM): 0.876
- relative viability ([2]; first compound 0.1265 µM): 0.759
- relative viability ([2]; first compound 0.4 µM): 0.305
- relative viability ([2]; first compound 4 µM): 0.757
- relative viability ([3]; first compound 0.04 µM): 0.917
- relative viability ([3]; first compound 0.1265 µM): 0.878
- relative viability ([3]; first compound 0.4 µM): 0.875
- relative viability ([3]; first compound 1.265 µM): 0.733
- relative viability ([3]; first compound 4 µM): 0.694
- relative viability ([4]; first compound 0.04 µM): 0.955
- relative viability ([4]; first compound 0.1265 µM): 0.915
- relative viability ([4]; first compound 0.4 µM): 0.909
- relative viability ([4]; first compound 1.265 µM): 0.856
- relative viability ([4]; first compound 4 µM): 0.45
- relative viability ([5]; first compound 0.04 µM): 1.06
- relative viability ([5]; first compound 0.1265 µM): 1.12
- relative viability ([5]; first compound 0.4 µM): 1.05
- relative viability ([5]; first compound 1.265 µM): 0.965
- relative viability ([5]; first compound 4 µM): 0.579
- relative viability ([6]; first compound 0.04 µM): 0.987
- relative viability ([6]; first compound 0.1265 µM): 0.906
- relative viability ([6]; first compound 0.4 µM): 0.956
- relative viability ([6]; first compound 1.265 µM): 0.54
- relative viability ([6]; first compound 4 µM): 0.739
- relative viability ([7]; first compound 0.04 µM): 0.905
- relative viability ([7]; first compound 0.1265 µM): 0.902
- relative viability ([7]; first compound 0.4 µM): 0.872
- relative viability ([7]; first compound 1.265 µM): 0.455
- relative viability ([7]; first compound 4 µM): 0.672
- relative viability ([8]; first compound 0.04 µM): 1.01
- relative viability ([8]; first compound 0.1265 µM): 1.05
- relative viability ([8]; first compound 0.4 µM): 0.929
- relative viability ([8]; first compound 1.265 µM): 0.96
- relative viability ([8]; first compound 4 µM): 0.696
- relative viability ([9]; first compound 0.04 µM): 0.988
- relative viability ([9]; first compound 0.1265 µM): 1.06
- relative viability ([9]; first compound 0.4 µM): 1.04
- relative viability ([9]; first compound 1.265 µM): 0.859
- relative viability ([9]; first compound 4 µM): 0.999
- relative viability ([10]; first compound 0.04 µM): 1.27
- relative viability ([10]; first compound 0.1265 µM): 1.28
- relative viability ([10]; first compound 0.4 µM): 0.912
- relative viability ([10]; first compound 1.265 µM): 1.2
- relative viability ([10]; first compound 4 µM): 1.37
- relative viability ([11]; first compound 0.04 µM): 1.05
- relative viability ([11]; first compound 0.1265 µM): 0.8
- relative viability ([11]; first compound 0.4 µM): 0.793
- relative viability ([11]; first compound 1.265 µM): 0.576
- relative viability ([11]; first compound 4 µM): 0.644
- relative viability ([12]; first compound 0.04 µM): 1.18
- relative viability ([12]; first compound 0.1265 µM): 1.25
- relative viability ([12]; first compound 0.4 µM): 1.14
- relative viability ([12]; first compound 1.265 µM): 1.14
- relative viability ([12]; first compound 4 µM): 1.24
- relative viability ([13]; first compound 0.04 µM): 1.13
- relative viability ([13]; first compound 0.1265 µM): 1.24
- relative viability ([13]; first compound 0.4 µM): 1.06
- relative viability ([13]; first compound 1.265 µM): 1.14
- relative viability ([13]; first compound 4 µM): 0.864
- relative viability ([14]; first compound 0.04 µM): 1.01
- relative viability ([14]; first compound 0.1265 µM): 0.973
- relative viability ([14]; first compound 0.4 µM): 0.967
- relative viability ([14]; first compound 1.265 µM): 0.947
- relative viability ([14]; first compound 4 µM): 1.12
- relative viability ([15]; first compound 0.04 µM): 0.593
- relative viability ([15]; first compound 0.1265 µM): 0.327
- relative viability ([15]; first compound 0.4 µM): 0.353
- relative viability ([15]; first compound 1.265 µM): 0.219
- relative viability ([15]; first compound 4 µM): 0.27
- relative viability ([16]; first compound 0.04 µM): 1.19
- relative viability ([16]; first compound 0.1265 µM): 1.06
- relative viability ([16]; first compound 0.4 µM): 1.13
- relative viability ([16]; first compound 1.265 µM): 0.697
- relative viability ([16]; first compound 4 µM): 1.04
- relative viability ([17]; first compound 0.04 µM): 1.08
- relative viability ([17]; first compound 0.1265 µM): 1.03
- relative viability ([17]; first compound 0.4 µM): 0.974
- relative viability ([17]; first compound 1.265 µM): 0.571
- relative viability ([17]; first compound 4 µM): 0.895
- relative viability ([18]; first compound 0.04 µM): 0.956
- relative viability ([18]; first compound 0.1265 µM): 0.871
- relative viability ([18]; first compound 0.4 µM): 0.801
- relative viability ([18]; first compound 1.265 µM): 0.895
- relative viability ([18]; first compound 4 µM): 0.487
- relative viability ([19]; first compound 0.04 µM): 1.33
- relative viability ([19]; first compound 0.1265 µM): 1.07
- relative viability ([19]; first compound 0.4 µM): 1.28
- relative viability ([19]; first compound 1.265 µM): 1.05
- relative viability ([19]; first compound 4 µM): 1.31
- relative viability ([20]; first compound 0.04 µM): 1.01
- relative viability ([20]; first compound 0.1265 µM): 1.05
- relative viability ([20]; first compound 0.4 µM): 1.1
- relative viability ([20]; first compound 1.265 µM): 1.03
- relative viability ([20]; first compound 4 µM): 1.09
- relative viability ([21]; first compound 0.04 µM): 0.839
- relative viability ([21]; first compound 0.1265 µM): 0.834
- relative viability ([21]; first compound 0.4 µM): 0.751
- relative viability ([21]; first compound 1.265 µM): 0.738
- relative viability ([21]; first compound 4 µM): 0.618
- relative viability ([22]; first compound 0.04 µM): 0.875
- relative viability ([22]; first compound 0.1265 µM): 0.808
- relative viability ([22]; first compound 0.4 µM): 0.827
- relative viability ([22]; first compound 1.265 µM): 0.684
- relative viability ([22]; first compound 4 µM): 0.996
